In data set [1] the test system is primary human hepatocytes. Briefly: Off-target toxicity in primary human hepatocytes. Type of data set: cell-based. Particulars: concentrations up to 100 nM.
Data set [2] has as its system Pancreatic cancer associated fibroblasts (CAF08).
Description: Pancreatic cancer associated fibroblasts (CAF08) and maintenance media (PC00B5) were obtained from Vitro Biopharma. 100 of PSCs were culture-activated for 7 to have the confluent population of activated cells or 2×10^4 cells of CAF08 were cultured on a 96 well microplate (Corning, CLS3917) for 24h and were incubated with TLY012 (at 30 ng/ml or 100 ng/ml) for 3h. After incubation, 50 μL of Caspase 3/7 substrate/lysis buffer was added to each well and incubated for 30 min after 30 min of equilibration period to room temperature. The luminescence of each sample was measured on a plate reader (Bio-Tek Instruments Inc) with parameters of 1 min lag time and 0.5 sec/well-read time (n=3).
For immunoblot, 100 of PSCs were culture activated on a 6 well plate for 7 days or 2×10^5 of CAF08 cells were plated on 6-well plates followed by control treatment or treatment with TLY012 (at 30 ng/ml or 100 ng/ml) for 3h. The lysates from the cells were tested for the presence of Cl.PARP-1 and SMA using Western bot.
Pancreatic cancer associated fibroblasts (CAF08) and maintenance media (PC00B5) were obtained from Vitro Biopharma and maintained in Pancreatic Stellate CAF maintenance media (Vitro Biopharma, Cat. No. PC00B5).
After incubation, 50 uL of Caspase 3/7 substrate/lysis buffer from Caspase3/7 Glo assay kit (Promega, Madison USA) was added to each well and incubated for 30 min after 30 min of equilibration period to room temperature. The luminescence of each sample was measured on a plate reader (Bio-Tek Instruments Inc) with parameters of 1 min lag time and 0.5 sec/well-read time (n=3).
For Western blot, 2×10^5 cells were plated on 6-well plates and were incubated with the same cytotoxic agents as indicated followed by Western blot detection of Cl.PARP-1, PD-L1, DR5, DR4, α-SMA, and β-actin.
The subject of data set [3] is quiescent primary human hepatic stellate cells (HSCs). Briefly: Cell cytotoxicity assay on quiescent hepatic stellate cells (off-target). Type of data set: cell-based. The note with it: high concentrations (100 nM). As to the method:
(§1) In addition to the standard physico-chemical characterization, the leads were tested for the target potency and off-target toxicity. Initially, selective apoptotic activities of various TLY012 leads were tested in normal (off-target) and myofibroblasts (target cells) by utilizing quiescent and activated primary human hepatic stellate cells (HSCs) respectively. Briefly, quiescent and culture-activated HSCs were incubated with TLY012 leads and cell viability was determined by cell cytotoxicity assays.

A further data set relates to ASPC-1/PSC xenografts. Kind of data set: PSC/ASPC-1 subcutaneous xenograft in athymic nude mice. Type of data set: in vivo. As to the method:
Six-week-old athymic nude mice were anesthetized for all procedures 5×10^6ASPC-1 cells (human pancreas adenocarcinoma ascites metastasis cell line derived from nude mouse xenografts initiated with cells from the ascites of a patient with cancer of the pancreas) were mixed with 5×10^4 PSC cells and injected in a subcutaneous in athymic nude mice. Before injection, the cells were trypsinized, counted, washed twice in 1×PBS and resuspended in 100 μl of Matrigel® matrix (Corning), and injected between the scapulae. Two weeks after the tumor transplantation, mice were injected with TLY012 via intravenous (IV) injection (10 mg/kg, every other day) for 2 weeks, while control mice received PBS. Western blot was performed on tissue extracts with antibodies against GAPDH (Santa Cruz 5 Biotechnology, sc-1694), α-SMA (Sigma, A2547), GRP78 (Santa Cruz Biotechnology, sc-13968), DR4 (Abcam, Cambridge, Mass., #13890), DR5 (Abcam, #47179), PDGF-Rb (Santa Cruz Biotechnology, sc-432), and Cl.PARP-1 (Cell Signaling Technology, #5625).
Comparative quantitative RT-PCR (qPCR) was performed in the tumor sample for fibrogenic markers. qPCR was performed in triplicate for each sample using fast SYBR Green Master Mix (Thermo Fisher Scientific) and StepOnePlus Real-Time PCR System (Thermo Fisher Scientific). The expression levels of target genes were normalized to the expression of 18s and calculated based on the comparative cycle threshold Ct method (2^−ΔΔCt).
Collagen deposition was detected with Masson's Trichrome staining and microscopy.
Mouse xenografts were generated as in Example 8. Two weeks after the tumor transplantation, mice were injected with TLY012 via intravenous (IV) injection (10 mg/kg, every other day) and/or sorafenib (20 mg/kg, oral everyday) for 2 weeks. The mice were euthanized when the tumor volume reached 1500 mm^3 and images of the excised xenografts recorded and tumor weight measured.

The test system of data set [4] is activated primary human hepatic stellate cells (HSCs). Briefly: Cell cytotoxicity assay on activated hepatic stellate cells (myofibroblasts). Type of data set: cell-based. The note with it: FIG. 3. The method, then:
as §1

The next data set deals with COLO 205 cells. Briefly: Cell viability bioassay (CELL TITER-GLO) on COLO 205 cells. Type of data set: cell-based, Human. The note with it: colorectal cancer cells COLO-205; read-out: potency in cell viability bioassay. From the text:
TLY012 is a PEGylated form of rhTRAIL, genetically fused to a humanized coiled-coil isoleucine “zipper” (miLZ) at the N-terminus. It is a DR4/DR5 receptor agonist and as such is known to induce apoptosis in Human colon adenocarcinoma cells COLO 205 resulting in inhibition of cell proliferation. CELL TITER-GLO™ (Promega, WI) was used to measure luminescence in conventional luciferase assay system. This assay is a homogeneous method to determine the number of metabolically active cells based on quantitation of the ATP present. […]
Assay Procedure. […] The 96-well plates were placed into a 37±1.0° C.; 5±0.5% CO2; ≥85% relative humidity cell culture incubator in a single layer and incubated for 1±0.5 hours until cells are ready. […] As a result, inhibition of cell proliferation is measured by adding the CELL TITER-GLO™ solution to the cells, the lysed cells release ATP. […]
The growth medium was RPMI1640 with 10% FBS, glutamine, penicillin/streptomycin solution. […] Cell suspension was transferred to the white 96-well plates and luminescence was measured by BIOTEK plate reader.
Data were analyzed using BioTek Gen5secure software. The dose response curves were generated using the four-parameter fit logistic model and the IC50 values for reference standard and test samples were calculated. Potency of the test sample is expressed as the ratio of the IC50 values of the test and reference standard samples. […]
Background: ATP-based viability assays read luminescence as a measure of living cells.

Entries after “also recorded” stand apart in the source; their conditions may differ.

“TLY012: PEGylated (5 kDa PEG-aldehyde) recombinant human TRAIL (114-281) fused to modified isoleucine zipper (miLZ) at N-terminus; SEQ ID NO:30 trimer”: the off-target toxicity entry in data set [1] is on record as “did not show any off-target toxicity”. Besides, the “Cl.PARP-1, immunoblot” value in data set [2] (TLY012 30 or 100 ng/ml for 3h) was “detected”. In addition, in data set [2] (TLY012 30 or 100 ng/ml for 3h, vs control treatment), the “caspase 3/7 activity (RLU)” value was “activated caspase 3/7”. Besides, the “protein levels of α-SMA, Western blotting” value in data set [2] (pancreatic CAF) is listed as “significantly decreased”. For the same substance, the figures for the “effect / off-target toxicity on quiescent HSCs” value in data set [3] and in data set [3] (listed as TLY012 leads) were “no effect” and “no off-target toxicity”, respectively. The “tumor weight, Mean” value in the data set with ASPC-1/PSC xenografts (TLY012 IV 10 mg/kg every other day and/or sorafenib 20 mg/kg oral everyday for 2 weeks) amounted to 1109.5 mg. Further, in the data set on ASPC-1/PSC xenografts (TLY012 IV 10 mg/kg every other day, 2 weeks, 10 mg/kg), the “collagen deposition, Masson's Trichrome staining” value is on record as “reduced the levels of collagen; also recorded: markedly reduced collagen deposition”. Besides, in the data set with ASPC-1/PSC xenografts (TLY012 IV 10 mg/kg every other day, 2 weeks, vs PBS controls, 10 mg/kg), the “PDGF-Rb, DR5, DR4 (and GRP78) protein levels in tumor, Western blot” value is “markedly reduced; also recorded: significantly decreased”. The “mRNA levels of fibrogenic markers Acta2, Pdgf-r, Tgf-b in tumor (qPCR)” value in the data set on ASPC-1/PSC xenografts (TLY012 IV 10 mg/kg every other day, 2 weeks, vs control, 10 mg/kg) is listed as “decreased; also recorded: significantly reduced”. Moreover, the figures for the IC50 (in data set [4]; with COLO 205 cells) were 0.142 nM and 0.0155 nM, respectively.
